Data taken from patent US20050112573A1, “Method of detecting toxic substance” (priority 2001, published 2005).

Test system: yeast genes (level of expressed mRNA)
Assay: DNA chip analysis of expressed mRNA of yeast genes after 2 h culture with a toxic chemical substance
Type: cell-based, Saccharomyces cerevisiae S288C
Settings: for The level of expressed mRNA in the presence of chemical substance/ (ratio to absence of chemical substance): stress protein genes, DNA chip; for The level of expressed mRNA in the presence of chemical substance/ in its absence, gene YPR184W: yeast gene YPR184W
Protocol: Yeast (Saccharomyces cerevtisiae S288C (α SUC2mal mel gap2 CUP1)) were cultured at 25° C. on YPD medium (yeast extract 1%, polypepton 2%, glucose 2%). One of toxic chemical substances was added to the cell at logarithmic growth phase, and the cell was further cultured for two hours. Cell was cultured without any chemical substance in the same condition, and was used as control. Concentrations of the chemical substances were defined to inhibit the growth of the yeast but not lead to death.
After the completion of cultivation, the culture was centrifuged to collect the cells. To the cells, sodium acetate buffer (50 mM sodium acetate, 10 mM EDTA, 1% SDS) was added, and the mixture was shaken at 65° C. for five minutes, followed by returning to room temperature, and obtaining the supernatant, which procedure was repeated two times. To the supernatant, ½ amount of a solution of phenol/chloroform was added, and the mixture was centrifuged to give a supernatant, which was added with an equal amount of chloroform, and the mixture was centrifuged to give a supernatant. To the supernatant, an equal amount of isopropanol containing 0.3 M sodium acetate was added, and the mixture was allowed to stand at room temperature for 30 minutes, after which the mixture was centrifuged to give a sediment of the whole RNAs. Seventy % ethanol was added to the sediment, and the mixture was again centrifuged to give a sediment, which was then dried and dissolved in water. mRNA was isolated from the whole RNAs as followings. In view of the fact that a poly A chain is attached to the 3′ terminus of mRNA, a polynucleotide having a poly T structure which was immobilized on the surface of latex beads was used to trap the mRNA, and then the mRNA was washed and eluted with spine column (Oligotex-dT30<Super>mRNA Purification Kit, Takara). Reverse transcription of the mRNA was conducted with a reverse transcriptase (Super Script II Reverse Transcriptase; catalogue No. 18064-014, GibcoBRL) using fluorescence-labeled nucleotides to give cDNAs that were introduced with Cy3-dUTP or Cy5-dUTP during the reverse transcription.
The labeled cDNAs were dissolved in TE buffer (10 mM Tris-HCl/1 mM EDTA, pH8.0), and the solution was dropped on the DNA chip containing the whole genes of yeast (DNA Chip Research Inc. Japan) so that the cDNAs were hybridized on the DNA chip at 65° C. for over 12 hours. The fluoresces intensity of the DNA chip was read with a scanner, and the ratio relative to the fluorescence intensity resulting from the absence of chemical substance was estimated as the following, which is shown in Tables 1 to 9: [formula]
In the Tables, “Intensity” indicated in the rightmost column is a value of the level of expressed mRNA of each gene in control cells as divided by the average level of the expressions of the whole genes.

With CCCCCCCCCCCCOS(=O)(=O)[O-].[Na+] [(18), sodium lauryl sulfate] the “The level of expressed mRNA in the presence of chemical substance/The level of expressed mRNA in the absence of chemical substance” value (yeast gene YNL006W) was 1.3, the “The level of expressed mRNA in the presence of chemical substance/The level of expressed mRNA in the absence of chemical substance” value (yeast gene YNL007C) was 1.0 and the “The level of expressed mRNA in the presence of chemical substance/ (in its absence), gene YNL025C” value (yeast gene YNL025C, ratio of DNA chip fluorescence intensity to that without chemical substance) was 1.3. The “The level of expressed mRNA in the presence of chemical substance/ (ratio to absence of chemical substance)” value (yeast gene YNL064C) was 0.7, the “The level of expressed mRNA in the presence of chemical substance/ (ratio to absence), gene YNL073W” value (yeast gene YNL073W, mitochondria-located protein genes, 2 h culture with chemical) was 1.0 and the “The level of expressed mRNA in the presence of chemical substance/The level of expressed mRNA in the absence of chemical substance” value (yeast gene YNL093W) was 3.1. The “The level of expressed mRNA in the presence of chemical substance/ (in its absence), gene YNL192W” value (yeast gene YNL192W, ratio of DNA chip fluorescence intensity to that without chemical substance) was 2.8, the “The level of expressed mRNA in the presence of chemical substance/The level of expressed mRNA in the absence of chemical substance” value (yeast gene YNL333W) was 1.1 and the “The level of expressed mRNA in the presence of chemical substance/The level of expressed mRNA in the absence of chemical substance” value (yeast gene YNR010W) was 2.3. The “The level of expressed mRNA in the presence of chemical substance/The level of expressed mRNA in the absence of chemical substance” value (yeast gene YNR069C) was 0.9, the “The level of expressed mRNA in the presence of chemical substance/ (in its absence), gene YNR072W” value (yeast gene YNR072W, ratio of DNA chip fluorescence intensity to that without chemical substance) was 1.0 and the “The level of expressed mRNA in the presence of chemical substance/ (ratio to absence of chemical substance)” value (yeast gene YNR076W) was 0.8. The “The level of expressed mRNA in the presence of chemical substance/The level of expressed mRNA in the absence of chemical substance” value (yeast gene YOL013C) was 1.4, the “The level of expressed mRNA in the presence of chemical substance/ (ratio to absence), gene YOL096C” value (yeast gene YOL096C, mitochondria-located protein genes, 2 h culture with chemical) was 1.2 and the “The level of expressed mRNA in the presence of chemical substance/ (in its absence), gene YOL096C” value (yeast gene YOL096C, ratio of DNA chip fluorescence intensity to that without chemical substance) was 1.2. The “The level of expressed mRNA in the presence of chemical substance/ (in its absence), gene YOL108C” value (yeast gene YOL108C, ratio of DNA chip fluorescence intensity to that without chemical substance) was 2.7, the “The level of expressed mRNA in the presence of chemical substance/ (in its absence), gene YOL116W” value (yeast gene YOL116W, ratio of DNA chip fluorescence intensity to that without chemical substance) was 1.4 and the “The level of expressed mRNA in the presence of chemical substance/ (ratio to absence of chemical substance)” value (yeast gene YOL161C) was 1.0. The “The level of expressed mRNA in the presence of chemical substance/The level of expressed mRNA in the absence of chemical substance” value (yeast gene YOL164W) was 1.3, the “The level of expressed mRNA in the presence of chemical substance/ (ratio to absence of chemical substance)” value (yeast gene YOR008C) was 1.3 and the “The level of expressed mRNA in the presence of chemical substance/ (ratio to absence of chemical substance)” value (yeast gene YOR009W) was 0.8. The “The level of expressed mRNA in the presence of chemical substance/ (ratio to absence of chemical substance)” value (yeast gene YOR010C) was 0.6, the “The level of expressed mRNA in the presence of chemical substance/The level of expressed mRNA in the absence of chemical substance” value (yeast gene YOR036W) was 1.7 and the “The level of expressed mRNA in the presence of chemical substance/ (in its absence), gene YOR103C” value (yeast gene YOR103C, ratio of DNA chip fluorescence intensity to that without chemical substance) was 1.5. For the same molecule, the “The level of expressed mRNA in the presence of chemical substance/The level of expressed mRNA in the absence of chemical substance” value (yeast gene YOR117W) was 0.9, the “The level of expressed mRNA in the presence of chemical substance/The level of expressed mRNA in the absence of chemical substance” value (yeast gene YOR124C) was 1.0 and the “The level of expressed mRNA in the presence of chemical substance/The level of expressed mRNA in the absence of chemical substance” value (yeast gene YOR132W) was 1.6. For the same molecule, the “The level of expressed mRNA in the presence of chemical substance/The level of expressed mRNA in the absence of chemical substance” value (yeast gene YOR157C) was 1.2, the “The level of expressed mRNA in the presence of chemical substance/ (in its absence), gene YOR180C” value (yeast gene YOR180C, ratio of DNA chip fluorescence intensity to that without chemical substance) was 2.3 and the “The level of expressed mRNA in the presence of chemical substance/The level of expressed mRNA in the absence of chemical substance” value (yeast gene YOR181W) was 0.6. For the same molecule, the “The level of expressed mRNA in the presence of chemical substance/The level of expressed mRNA in the absence of chemical substance” value (yeast gene YOR185C) was 1.1, the “The level of expressed mRNA in the presence of chemical substance/The level of expressed mRNA in the absence of chemical substance” value (yeast gene YOR198C) was 1.5 and the “The level of expressed mRNA in the presence of chemical substance/ (in its absence), gene YOR251C” value (yeast gene YOR251C, ratio of DNA chip fluorescence intensity to that without chemical substance) was 1.3. For the same molecule, the “The level of expressed mRNA in the presence of chemical substance/The level of expressed mRNA in the absence of chemical substance” value (yeast gene YOR259C) was 1.5, the “The level of expressed mRNA in the presence of chemical substance/The level of expressed mRNA in the absence of chemical substance” value (yeast gene YOR261C) was 1.9 and the “The level of expressed mRNA in the presence of chemical substance/The level of expressed mRNA in the absence of chemical substance” value (yeast gene YOR288C) was 1.6. The “The level of expressed mRNA in the presence of chemical substance/ (ratio to absence), gene YOR316C” value (yeast gene YOR316C, mitochondria-located protein genes, 2 h culture with chemical) was 1.0, the “The level of expressed mRNA in the presence of chemical substance/ (in its absence), gene YOR348C” value (yeast gene YOR348C, ratio of DNA chip fluorescence intensity to that without chemical substance) was 0.9 and the “The level of expressed mRNA in the presence of chemical substance/The level of expressed mRNA in the absence of chemical substance” value (yeast gene YOR355W) was 0.9. For the same molecule, the “The level of expressed mRNA in the presence of chemical substance/ (in its absence), gene YOR363C” value (yeast gene YOR363C, ratio of DNA chip fluorescence intensity to that without chemical substance) was 1.8, the “The level of expressed mRNA in the presence of chemical substance/The level of expressed mRNA in the absence of chemical substance” value (yeast gene YOR383C) was 1.1 and the “The level of expressed mRNA in the presence of chemical substance/ (ratio to absence), gene YPL040C” value (yeast gene YPL040C, mitochondria-located protein genes, 2 h culture with chemical) was 1.1. The “The level of expressed mRNA in the presence of chemical substance/ (ratio to absence of chemical substance)” value (yeast gene YPL059W) was 1.3, the “The level of expressed mRNA in the presence of chemical substance/The level of expressed mRNA in the absence of chemical substance” value (yeast gene YPL089C) was 1.1 and the “The level of expressed mRNA in the presence of chemical substance/The level of expressed mRNA in the absence of chemical substance” value (yeast gene YPL109C) was 1.2. The “The level of expressed mRNA in the presence of chemical substance/ (ratio to absence), gene YPL134C” value (yeast gene YPL134C, mitochondria-located protein genes, 2 h culture with chemical) was 1.3, the “The level of expressed mRNA in the presence of chemical substance/ (ratio to absence of chemical substance)” value (yeast gene YPL140C) was 1.4 and the “The level of expressed mRNA in the presence of chemical substance/ (in its absence), gene YPL148C” value (yeast gene YPL148C, ratio of DNA chip fluorescence intensity to that without chemical substance) was 1.1. For the same molecule, the “The level of expressed mRNA in the presence of chemical substance/The level of expressed mRNA in the absence of chemical substance” value (yeast gene YPL149W) was 2.9, the “The level of expressed mRNA in the presence of chemical substance/The level of expressed mRNA in the absence of chemical substance” value (yeast gene YPL154C) was 2.0 and the “The level of expressed mRNA in the presence of chemical substance/ (ratio to absence of chemical substance)” value (yeast gene YPL194W) was 0.8. The “The level of expressed mRNA in the presence of chemical substance/ (ratio to absence of chemical substance)” value (yeast gene YPR005C) was 1.1, the “The level of expressed mRNA in the presence of chemical substance/The level of expressed mRNA in the absence of chemical substance” value (yeast gene YPR103W) was 1.5 and the “The level of expressed mRNA in the presence of chemical substance/The level of expressed mRNA in the absence of chemical substance” value (yeast gene YPR108W) was 1.3. For the same molecule, the “The level of expressed mRNA in the presence of chemical substance/ (in its absence), gene YPR165W” value (yeast gene YPR165W, ratio of DNA chip fluorescence intensity to that without chemical substance) was 2.7, the “The level of expressed mRNA in the presence of chemical substance/ in its absence, gene YPR184W” value (energy system protein genes, 2 h culture with the chemical, ratio to control without chemical) was 1.7 and the “The level of expressed mRNA in the presence of chemical substance/ in its absence, gene YPR184W” value (ratio of DNA chip fluorescence intensity to that without chemical substance) was 1.7.
